# Patent US20250282799A1, “SUBSTITUTED PYRIDO[4,3-d]PYRIMIDINES AS KRAS MODULATORS” (Alterome Therapeutics, Inc., priority 2023, published 2025)
# System: KRAS G12V dependent lung adenocarcinoma cell line, NCI-H441
# Experiment: Cellular pERK (Thr202/Tyr204) FRET/HTRF assay
# Type: cell-based
# Settings: Homo sapiens, NCI-H441, cellular pERK (Thr202/Tyr204) HTRF, NCI-H441 cells
# How it was run: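 NCI-H441, overnight plating → cpd 1 hr, 37 °C/5% CO2; DMSO neg ctrl. Lyse (phosphatase inhibitors), add donor/acceptor Abs, RT incubation, HTRF read. IC50 by curve fit.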
row,IC50 [nM],SMILES
1,< 50,"[2H]C1([2H])CC[C@@]2(C([2H])([2H])Oc3nc(N4CCOC[C@H]5[C@H](F)[C@H]54)c4cnc(-c5cc(N)cc6ccc(F)c(C#C)c56)c(F)c4n3)C[C@@]([2H])(F)CN12 [Example 193, 5-ethynyl-6-fluoro-4-(8-fluoro-4-((1S,7S,8S)-8-fluoro-5-oxa-2-azabicyclo[5.1.0]octan-2-yl)-2-(((2R,7aS)-2-fluorotetrahydro-1H-pyrrolizin-7a(5H)-yl-2,5,5-d3)methoxy-d2)pyrido[4,3-d]pyrimidin-7-yl)naphthalen-2-amine]"
2,< 50,"[2H]C([2H])(Oc1nc(N2CCOC[C@H]3[C@H](F)[C@H]32)c2cnc(-c3cc(N)cc4ccc(F)c(CC)c34)c(F)c2n1)[C@@]12CCCN1C[C@H](F)C2 [Example 201, 5-ethyl-6-fluoro-4-(8-fluoro-4-((1S,7S,8S)-8-fluoro-5-oxa-2-azabicyclo[5.1.0]octan-2-yl)-2-(((2R,7aS)-2-fluorotetrahydro-1H-pyrrolizin-7a(5H)-yl)methoxy-d2)pyrido[4,3-d]pyrimidin-7-yl)naphthalen-2-amine]"
3,< 50,"[2H]C([2H])([2H])Oc1c(F)c(F)c(F)c2cc(N)cc(-c3ncc4c(N5CCOC[C@H]6[C@H](F)[C@H]65)nc(OC[C@@]56CCCN5C/C(=C/F)C6)nc4c3F)c12 [Example 132, 6,7,8-trifluoro-4-(8-fluoro-4-((1S,7S,8S)-8-fluoro-5-oxa-2-azabicyclo[5.1.0]octan-2-yl)-2-(((S,E)-2-(fluoromethylene)tetrahydro-1H-pyrrolizin-7a(5H)-yl)methoxy)pyrido[4,3-d]pyrimidin-7-yl)-5-(methoxy-d3)naphthalen-2-amine]"
4,< 50,"[2H]C([2H])(F)Oc1c(F)ccc2cc(N)cc(-c3ncc4c(N5CCOC[C@H]6[C@H](F)[C@H]65)nc(OC[C@]56C/C(=C\F)CN5CCC65CC5)nc4c3F)c12 [Example 388, 6-fluoro-4-(8-fluoro-4-((1S,7S,8S)-8-fluoro-5-oxa-2-azabicyclo[5.1.0]octan-2-yl)-2-(((R,E)-6′-(fluoromethylene)tetrahydrospiro[cyclopropane-1,1′-pyrrolizin]-7a′(5′H)-yl)methoxy)pyrido[4,3-d]pyrimidin-7-yl)-5-(fluoromethoxy-d2)naphthalen-2-amine]"
5,< 50,"[2H]C([2H])(F)Oc1c(F)ccc2cc(N)cc(-c3ncc4c(N5CCOC[C@H]6[C@H](F)[C@H]65)nc(OC[C@@]56CCCN5C[C@H](C)C6)nc4c3F)c12 (single isomer, unassigned) [Example 215]"
6,< 50,"C#Cc1c(F)ccc2cccc(-c3ncc4c(N5CCCC[C@H]6[C@H](F)[C@H]65)nc(OC[C@]56CC(=C(F)F)CN5CCC65CC5)nc4c3F)c12 [Example 405, (R)-6′-(Difluoromethylene)-7a′-(((7-(8-ethynyl-7-fluoronaphthalen-1-yl)-8-fluoro-4-((1S,7R,8S)-8-fluoro-2-azabicyclo[5.1.0]octan-2-yl)pyrido[4,3-d]pyrimidin-2-yl)oxy)methyl)hexahydrospiro[cyclopropane-1,1′-pyrrolizine]]"
7,50 to 500,"[2H]C([2H])([2H])Oc1c(F)c(F)cc2cccc(-c3ncc4c(N5CCCC[C@H]6[C@H](F)[C@H]65)nc(OC([2H])([2H])[C@@]56CCCN5C[C@H](F)C6)nc4c3F)c12 [Example 109, 7-(6,7-difluoro-8-(methoxy-d3)naphthalen-1-yl)-8-fluoro-4-((1S,7R,8S)-8-fluoro-2-azabicyclo[5.1.0]octan-2-yl)-2-(((2R,7aS)-2-fluorotetrahydro-1H-pyrrolizin-7a(5H)-yl)methoxy-d2)pyrido[4,3-d]pyrimidine]"
8,< 50,"[2H]C([2H])(Oc1nc(N2CCOC[C@H]3[C@H](F)[C@H]32)c2cnc(-c3cc(N)cc(Cl)c3C(F)(F)F)c(F)c2n1)[C@@]12CCCN1C[C@H](F)C2 [Example 272, 3-chloro-5-(8-fluoro-4-((1S,7S,8S)-8-fluoro-5-oxa-2-azabicyclo[5.1.0]octan-2-yl)-2-(((2R,7aS)-2-fluorotetrahydro-1H-pyrrolizin-7a(5H)-yl)methoxy-d2)pyrido[4,3-d]pyrimidin-7-yl)-4-(trifluoromethyl)aniline]"
9,< 50,"C#Cc1c(F)ccc2cc(N)cc(-c3ncc4c(N5CCOC[C@H]6[C@H](F)[C@H]65)nc(OC[C@@]56CCCN5CC(=C(F)F)C6)nc4c3F)c12 [Example 134, 4-(2-(((S)-2-(difluoromethylene)tetrahydro-1H-pyrrolizin-7a(5H)-yl)methoxy)-8-fluoro-4-((1S,7S,8S)-8-fluoro-5-oxa-2-azabicyclo[5.1.0]octan-2-yl)pyrido[4,3-d]pyrimidin-7-yl)-5-ethynyl-6-fluoronaphthalen-2-amine]"
10,< 50,"C#Cc1c(Cl)ccc2cc(O)cc(-c3ncc4c(N5CCOC[C@H]6[C@H](F)[C@H]65)nc(OC[C@@H]5CCCN5C)nc4c3F)c12 [Example 294, 6-chloro-5-ethynyl-4-(8-fluoro-4-((1S,7S,8S)-8-fluoro-5-oxa-2-azabicyclo[5.1.0]octan-2-yl)-2-(((S)-1-methylpyrrolidin-2-yl)methoxy)pyrido[4,3-d]pyrimidin-7-yl)naphthalen-2-ol]"
11,500 to 10000,"[2H]C([2H])(Oc1nc(N2CCCC[C@H]3[C@H](F)[C@H]32)c2cnc(-c3cccc4c(F)c(F)c(F)c(C#C)c34)c(F)c2n1)[C@@]12CCCN1C[C@H](F)C2 [Example 111, 7-(8-ethynyl-5,6,7-trifluoronaphthalen-1-yl)-8-fluoro-4-((1S,7R,8S)-8-fluoro-2-azabicyclo[5.1.0]octan-2-yl)-2-(((2R,7aS)-2-fluorotetrahydro-1H-pyrrolizin-7a(5H)-yl)methoxy-d2)pyrido[4,3-d]pyrimidine]"
12,< 50,"C#Cc1c(F)ccc2cc(O)cc(-c3ncc4c(N5CCOC[C@H]6[C@H](F)[C@H]65)nc(OC[C@@H]5CCCN5C)nc4c3F)c12 [Example 285, 5-ethynyl-6-fluoro-4-(8-fluoro-4-((1S,7S,8S)-8-fluoro-5-oxa-2-azabicyclo[5.1.0]octan-2-yl)-2-(((S)-1-methylpyrrolidin-2-yl)methoxy)pyrido[4,3-d]pyrimidin-7-yl)naphthalen-2-ol]"
13,< 50,"[2H]C([2H])(F)Oc1c(F)ccc2cc(N)cc(-c3ncc4c(N5CCOC[C@H]6[C@H](F)[C@H]65)nc(OC[C@]56CC7(CC7)CN5CCC65CC5)nc4c3F)c12 [Example 228, 4-(2-(((R)-dihydro-5′H-dispiro[cyclopropane-1,1′-pyrrolizine-6′,1″- cyclopropan]-7a′(7′H)-yl)methoxy)-8-fluoro-4-((1S,7S,8S)-8-fluoro-5-oxa-2-azabicyclo[5.1.0]octan-2-yl)pyrido[4,3-d]pyrimidin-7-yl)-6-fluoro-5-(fluoromethoxy-d2)naphthalen-2-amine]"

# Same assay, conditions: Homo sapiens, NCI-H441, cellular pERK HTRF, NCI-H441 (KRAS G12V) cells
row,IC50 [nM],SMILES
1,< 50,"[2H]C([2H])(Oc1nc(N2CCCC[C@H]3[C@H](F)[C@H]32)c2cnc(-c3cc(O)cc4ccc(F)c(C#C)c34)c(C)c2n1)[C@@]12CCCN1C[C@H](F)C2 [Example 463, 5-Ethynyl-6-fluoro-4-(4-((1S,7R,8S)-8-fluoro-2-azabicyclo[5.1.0]octan-2-yl)-2-(((2R,7aS)-2-fluorotetrahydro-1H-pyrrolizin-7a(5H)-yl)methoxy-d2)-8-methylpyrido[4,3-d]pyrimidin-7-yl)naphthalen-2-ol]"

# Same assay, conditions: Homo sapiens, NCI-H441, pERK HTRF, NCI-H441 cells (KRAS G12V)
row,IC50 [nM],SMILES
1,< 50,"[2H]C([2H])([2H])Oc1c(C#N)ccc2cc(N)cc(-c3ncc4c(N5CCCC[C@H]6[C@H](F)[C@H]65)nc(OC([2H])([2H])[C@@]56CCCN5C[C@H](F)C6)nc4c3F)c12 [Example 49, 6-Amino-8-(8-fluoro-4-((1S,7R,8S)-8-fluoro-2-azabicyclo[5.1.0]octan-2-yl)-2-(((2R,7aS)-2-fluorotetrahydro-1H-pyrrolizin-7a(5H)-yl)methoxy-d2)pyrido[4,3-d]pyrimidin-7-yl)-1-(methoxy-d3)-2-naphthonitrile]"
2,500 to 10000,"C#Cc1c(F)ccc2cc(N)cc(-c3ncc4c(N5CCCC[C@@H]6C[C@@H]65)nc(OC[C@@]56CCCN5C[C@H](F)C6)nc4c3F)c12 [Example 4, 4-(4-((1S,7R)-2-azabicyclo[5.1.0]octan-2-yl)-8-fluoro-2-(((2R,7aS)-2-fluorotetrahydro-1H-pyrrolizin-7a(5H)-yl)methoxy)pyrido[4,3-d]pyrimidin-7-yl)-5-ethynyl-6-fluoronaphthalen-2-amine]"

# Same assay, conditions: cellular pERK (Thr202/Tyr204) HTRF, NCI-H441 cells
row,IC50 [nM],SMILES
1,< 50,"[2H]C([2H])(Oc1nc(N2CCOC[C@H]3[C@H](F)[C@H]32)c2cc(C#N)c(-c3cc(N)cc4ccc(F)c(C#C)c34)c(F)c2n1)[C@@]12CCCN1C[C@H](F)C2 [Example 353, 7-(3-Amino-8-ethynyl-7-fluoronaphthalen-1-yl)-8-fluoro-4-((1S,7S,8S)-8-fluoro-5-oxa-2-azabicyclo[5.1.0]octan-2-yl)-2-(((2R,7aS)-2-fluorotetrahydro-1H-pyrrolizin-7a(5H)-yl)methoxy-d2)quinazoline-6-carbonitrile]"
2,< 50,"[2H]C([2H])(Oc1nc(N2CCOC[C@H]3[C@H](F)[C@H]32)c2cc(F)c(-c3ccc(F)c4sc(N)c(C#N)c34)c(F)c2n1)[C@@]12CCCN1C[C@H](F)C2 (atropisomer, axis not shown; (aS)) [Example 357, 2-amino-4-((S)-6,8-difluoro-4-((1S,7S,8S)-8-fluoro-5-oxa-2-azabicyclo[5.1.0]octan-2-yl)-2-(((2R,7aS)-2-fluorotetrahydro-1H-pyrrolizin-7a(5H)-yl)methoxy-d2)quinazolin-7-yl)-7-fluorobenzo[b]thiophene-3-carbonitrile]"
